{"source": "patent US11279735B2", "about": "“Cyclic peptide antibiotics” (priority 2017, dated 2022)", "note": "Values joined by “and” are separate entries in the source; they are usually repeats but may differ in a detail not shown here. Identical values can stand only once. *1 amine or outer side, *2 acyl side, *3 side chain or, on linkers, in order; H or OH if unused. Where a SMILES comes first, the peptide text is derived from it. [ ]: non-standard residue; d: D form. The star is where a group is joined. X13 = C[C@H](CO[C@H](CC1CC2(CCC2)C1)[C@@H](C)C(=O)[*:2])N[*:1]; X17 = CCCCCC[C@@H](O[C@H](C)CN[*:1])[C@@H](C)C(=O)[*:2]; X2 = CCCCCC[C@@H](OC[C@@H](C)N[*:1])[C@@H](C)C(=O)[*:2]; X14 = CCCCCC[C@@H](OCCN[*:1])[C@@H](C)C(=O)[*:2]; Cyclobutyl(trans-3-NH2) = N[C@H]1C[C@H](*)C1; Gly(cHept) = N[C@H](C(=O)O)C1CCCCCC1; aThr = C[C@H](O)[C@H](N)C(=O)O; NMeL = CN[C@@H](CC(C)C)C(=O)O; Chg = N[C@H](C(=O)O)C1CCCCC1; NMeNva = CCC[C@H](NC)C(=O)O; Propyl(3-NMe2) = CN(C)CCC*; X8 = NC[C@H]1C[C@H](*)C1; Dap = NC[C@H](N)C(=O)O; Propyl(3-NH2) = NCCC*; X10 = NCCCC*", "data": [{"tested_on": "Escherichia coli (E. coli) strain CFT073 ATCC 700928", "type": "cell-based", "conditions": "ATCC 700928, 22 h", "in_short": "(§1)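 Broth microdilution MIC per CLSI M07-A8 in cation-adjusted Mueller Hinton II broth with 0.002% Tween-80. Ten-point 2-fold series topped at 64, 4, 0.5 or 0.13 μg/mL depending on protocol. Final inoculum OD600 0.0005, incubated 22 h at 35 °C.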", "units": {"MIC": "µM"}, "values": [{"smiles": "CCCCCC[C@H]1OCCNC(=O)[C@H]([C@H](C)O)NC(=O)[C@H](CN)NC(=O)[C@H](C2CCCCC2)NC(=O)[C@H](CC(C)C)N(C)C(=O)[C@@H]1C", "note": "[Example 115, (6S,9S,12S,15S,18R,19R)-9-(aminomethyl)-12-cyclohexyl-19-hexyl-15-isobutyl-16,18-dimethyl-6-[(1S)-1-hydroxyethyl]-1-oxa-4,7,10,13,16-pentazacyclononadecane-5,8,11,14,17-pentone] (cyclo([Chg][Dap][aThr][X14][NMeL]))", "MIC": 8.7}, {"smiles": "CCCCCC[C@H]1OC(=O)CNC(=O)[C@H](COCCCN)NC(=O)[C@H](CN)NC(=O)[C@H](C2CCCCC2)NC(=O)[C@H](CC(C)C)N(C)C(=O)[C@@H]1C", "note": "[Example 51, (6S,9S,12S,15S,18R,19R)-9-(Aminomethyl)-6-((3-aminopropoxy)methyl)-12-cyclohexyl-19-hexyl-15-isobutyl-16,18-dimethyl-1-oxa-4,7,10,13,16-pentaazacyclononadecane-2,5,8,11,14,17-hexaone]", "MIC": 8.7}, {"smiles": "CC[C@@H](C)[C@@H]1NC(=O)[C@H](CC(C)C)N(C)C(=O)[C@H](C)[C@@H](CCCCC(C)(C)C)OC(=O)CNC(=O)[C@H]([C@H](C)O)NC(=O)[C@H](CN)NC1=O", "note": "[Example 49, (6S,9S,12S,15S,18R,19R)-9-(aminomethyl)-19-(5,5-dimethylhexyl)-6-[(1S)-1-hydroxyethyl]-15-isobutyl-16,18-dimethyl-12-[(1R)-1-methylpropyl]-1-oxa-4,7,10,13,16-pentazacyclononadecane-2,5,8,11,14,17-hexone]", "MIC": 3.1}, {"smiles": "CCCCCC[C@H]1OC[C@@H](C)NC(=O)[C@H]([C@H](C)O)NC(=O)[C@H](CN)NC(=O)[C@H](C2CCCCC2)NC(=O)[C@H](CC(C)C)N(C)C(=O)[C@@H]1C", "note": "[Example 57, (3R,6S,9S,12S,15S,18R,19R)-9-(Aminomethyl)-12-cyclohexyl-19-hexyl-6-((S)-1-hydroxyethyl)-15-isobutyl-3,16,18-trimethyl-1-oxa-4,7,10,13,16-pentaazacyclononadecane-5,8,11,14,17-pentaone] (cyclo([Chg][Dap][aThr][X2][NMeL]))", "MIC": 2.9}, {"smiles": "CCCCCCC1OC(=O)CNC(=O)[C@H](CNC(=O)C2CC3(CNC3)C2)NC(=O)[C@H](CN)NC(=O)[C@H](C2CCCCC2)NC(=O)[C@H](CC(C)C)N(C)C(=O)[C@@H]1C", "note": "(stereo in doubt) [Example 165, N-[[(6S,9S,12S,15S,18R,19R)-9-(Aminomethyl)-12-cyclohexyl-19-hexyl-15-isobutyl-16,18-dimethyl-2,5,8,11,14,17-hexaoxo-1-oxa-4,7,10,13,16-pentazacyclononadec-6-yl]methyl]-2-azaspiro[3.3]heptane-6-carboxamide]", "MIC": 4.4}, {"smiles": "CCCCCCCCCC[C@H]1OC(=O)CNC(=O)[C@H]([C@H](C)O)NC(=O)[C@H](CN)NC(=O)[C@H](CCCCOC)NC(=O)[C@H](CC(C)C)N(C)C(=O)[C@@H]1C", "note": "[Example 50, (6S,9S,12S,15S,18R,19R)-9-(aminomethyl)-19-decyl-6-[(1S)-1-hydroxyethyl]-15-isobutyl-12-(4-methoxybutyl)-16,18-dimethyl-1-oxa-4,7,10,13,16-pentazacyclononadecane-2,5,8,11,14,17-hexone]", "MIC": 25}, {"smiles": "CCCCCC[C@H]1OC[C@@H](C)NC(=O)[C@H]([C@H](C)OCCCN)NC(=O)[C@H](CN)NC(=O)[C@H](C2CCCCC2)NC(=O)[C@H](CC(C)C)N(C)C(=O)[C@@H]1C", "note": "[Example 70, (3R,6S,9S,12S,15S,18R,19R)-9-(Aminomethyl)-6-((S)-1-(3-aminopropoxy)ethyl)-12-cyclohexyl-19-hexyl-15-isobutyl-3,16,18-trimethyl-1-oxa-4,7,10,13,16-pentaazacyclononadecane-5,8,11,14,17-pentaone] (cyclo([Chg][Dap][aThr](Propyl(3-NH2))[X2][NMeL]))", "MIC": 15}, {"smiles": "CCC[C@H]1C(=O)N[C@@H](C2CCCCC2)C(=O)N[C@@H](CN)C(=O)N[C@@H](CO[C@H]2C[C@H](N)C2)C(=O)N[C@H](C)CO[C@H](CC2CC3(CCC3)C2)[C@@H](C)C(=O)N1C", "note": "[Example 172, (3R,6S,9S,12S,15S,18R,19R)-6-(((1r,3S)-3-Aminocyclobutoxy)methyl)-9-(aminomethyl)-12-cyclohexyl-3,16,18-trimethyl-15-propyl-19-(spiro[3.3]heptan-2-ylmethyl)-1-oxa-4,7,10,13,16-pentaazacyclononadecane-5,8,11,14,17-pentaone] (cyclo([Chg][Dap]S(Cyclobutyl(trans-3-NH2))[X13][NMeNva]))", "MIC": 4.4}, {"smiles": "CCCCCC[C@H]1OC[C@@H](C)NC(=O)[C@H](COCCCCN)NC(=O)[C@H](CN)NC(=O)[C@H](C2CCCCCC2)NC(=O)[C@H](CCC)N(C)C(=O)[C@@H]1C", "note": "[Example 152, (3R,6S,9S,12S,15S,18R,19R)-6-((4-Aminobutoxy)methyl)-9-(aminomethyl)-12-cycloheptyl-19-hexyl-3,16,18-trimethyl-15-propyl-1-oxa-4,7,10,13,16-pentaazacyclononadecane-5,8,11,14,17-pentaone] (cyclo([Dap]S(X10)[X2][NMeNva][Gly(cHept)]))", "MIC": 6.3}, {"smiles": "CCCCCC[C@H]1O[C@H](C)CNC(=O)[C@H]([C@H](C)O)NC(=O)[C@H](CN)NC(=O)[C@H](C2CCCCC2)NC(=O)[C@H](CC(C)C)N(C)C(=O)[C@@H]1C", "note": "[Example 140, (2R,6S,9S,12S,15S,18R,19R)-9-(aminomethyl)-12-cyclohexyl-19-hexyl-15-isobutyl-2,16,18-trimethyl-6-[(1S)-1-hydroxyethyl]-1-oxa-4,7,10,13,16-pentazacyclononadecane-5,8,11,14,17-pentone] (cyclo([Chg][Dap][aThr][X17][NMeL]))", "MIC": 35}, {"smiles": "CCCCCCCCCC[C@H]1OC(=O)CNC(=O)[C@H]([C@H](C)O)NC(=O)[C@H](CN)NC(=O)[C@H](CCc2ccccc2)NC(=O)[C@H](CC(C)C)N(C)C(=O)[C@@H]1C", "note": "[Example 46, (6S,9S,12S,15S,18R,19R)-9-(aminomethyl)-19-decyl-6-[(1S)-1-hydroxyethyl]-15-isobutyl-16,18-dimethyl-12-(2-phenylethyl)-1-oxa-4,7,10,13,16-pentazacyclononadecane-2,5,8,11,14,17-hexone]", "MIC": 25}, {"smiles": "CCCCCC[C@H]1OC[C@@H](C)NC(=O)[C@H](COCCCN(C)C)NC(=O)[C@H](CN)NC(=O)[C@H](C2CCCCC2)NC(=O)[C@H](CC(C)C)N(C)C(=O)[C@@H]1C", "note": "[Example 78, (3R,6S,9S,12S,15S,18R,19R)-9-(Aminomethyl)-12-cyclohexyl-6-((3-(dimethylamino)propoxy)methyl)-19-hexyl-15-isobutyl-3,16,18-trimethyl-1-oxa-4,7,10,13,16-pentaazacyclononadecane-5,8,11,14,17-pentaone] (cyclo([Chg][Dap]S(Propyl(3-NMe2))[X2][NMeL]))", "MIC": 25}, {"smiles": "CCCCCCCCCC[C@H]1OC(=O)CNC(=O)[C@H]([C@H](C)O)NC(=O)[C@H](CN)NC(=O)[C@H]([C@@H](C)CC)NC(=O)[C@H](CC(C)C)N(C)C(=O)[C@@H]1C", "note": "[Example 23, (6S,9S,12S,15S,18R,19R)-9-(aminomethyl)-19-decyl-6-[(1S)-1-hydroxyethyl]-15-isobutyl-16,18-dimethyl-12-[(1S)-1-methylpropyl]-1-oxa-4,7,10,13,16-pentazacyclononadecane-2,5,8,11,14,17-hexone]", "MIC": 3.1}, {"smiles": "CCCCCC[C@H]1OC(=O)CNC(=O)[C@H](CCO)NC(=O)[C@H](CN)NC(=O)[C@H]([C@H](C)CC)NC(=O)[C@H](CC(C)C)N(C)C(=O)[C@@H]1C", "note": "[Example 13, (6S,9S,12S,15S,18R,19R)-9-(aminomethyl)-19-hexyl-6-(2-hydroxyethyl)-15-isobutyl-16,18-dimethyl-12-[(1R)-1-methylpropyl]-1-oxa-4,7,10,13,16-pentazacyclononadecane-2,5,8,11,14,17-hexone]", "MIC": 50}, {"smiles": "CCCCCCCCCC[C@H]1OC(=O)CNC(=O)[C@H](CCO)NC(=O)[C@H](CN)NC(=O)[C@H]([C@H](C)CC)NC(=O)[C@H](CC(C)C)N(C)C(=O)[C@@H]1C", "note": "[Example 10, (6S,9S,12S,15S,18R,19R)-9-(aminomethyl)-19-decyl-6-(2-hydroxyethyl)-15-isobutyl-16,18-dimethyl-12-[(1R)-1-methylpropyl]-1-oxa-4,7,10,13,16-pentazacyclononadecane-2,5,8,11,14,17-hexone]", "MIC": 6.3}, {"smiles": "CCCCCC[C@H]1OC[C@@H](C)NC(=O)[C@H](CO[C@H]2C[C@H](CN)C2)NC(=O)[C@H](CN)NC(=O)[C@H](C2CCCCCC2)NC(=O)[C@H](CCC)N(C)C(=O)[C@@H]1C", "note": "[Example 168, (3R,6S,9S,12S,15S,18R,19R)-9-(Aminomethyl)-6-(((1r,3S)-3-(aminomethyl)cyclobutoxy)methyl)-12-cycloheptyl-19-hexyl-3,16,18-trimethyl-15-propyl-1-oxa-4,7,10,13,16-pentaazacyclononadecane-5,8,11,14,17-pentaone] (cyclo([Dap]S(X8)[X2][NMeNva][Gly(cHept)]))", "MIC": 3.1}, {"smiles": "CCCC[C@H]1OC(=O)CNC(=O)[C@H]([C@H](C)O)NC(=O)[C@H](CN)NC(=O)[C@H](C2CCCCC2)NC(=O)[C@H](CC(C)C)N(C)C(=O)[C@@H]1Cc1ccc(C)cc1", "note": "[Example 109, (6S,9S,12S,15S,18R,19R)-9-(aminomethyl)-19-butyl-12-cyclohexyl-15-isobutyl-16-methyl-18-(p-tolylmethyl)-6-[(1S)-1-hydroxyethyl]-1-oxa-4,7,10,13,16-pentazacyclononadecane-2,5,8,11,14,17-hexone]", "MIC": 25}]}, {"tested_on": "Escherichia coli (E. coli) strain CFT073 ATCC 700928", "type": "cell-based", "conditions": "E. coli CFT073 ATCC 700928; Mueller Hinton II cation adjusted Broth with 0.002% v/v Tween-80; 35° C. for 22 hours; lowest concentration that completely prevented bacterial growth", "in_short": "as §1", "values": [{"smiles": "CCCCCCCCCC[C@H]1OC(=O)CNC(=O)[C@H](CO)NC(=O)[C@H](CO)NC(=O)[C@H]([C@H](C)CC)NC(=O)[C@H](CC(C)C)N(C)C(=O)[C@@H]1C", "note": "[Example 5, (6S,9S,12S,15S,18R,19R)-12-((R)-sec-butyl)-19-decyl-6,9-bis(hydroxymethyl)-15-isobutyl-16,18-dimethyl-1-oxa-4,7,10,13,16-pentaazacyclononadecane-2,5,8,11,14,17-hexaone]", "MIC": "4.7 µM and 3.1 µM"}]}]}
